Reference: patent US9050343B2 (ACADIA Pharmaceuticals Inc., priority 2007, dated 2015)
Values joined by “and” are separate entries in the source; they are usually repeats but may differ in a detail not shown here. Equal values may be shown once. Read-outs that look alike come from different tables or passages of the source.

How the values were obtained:
[1] = tested on: amphetamine-induced hyperlocomotion in mice; test: Amphetamine-induced hyperlocomotor activity assay; format: in vivo; settings: for suppression of amphetamine-induced hyperlocomotion: pimavanserin at 0.03 mg/kg sc; for suppression of amphetamine-induced hyperlocomotor activity: antipsychotic combined with a fixed dose of pimavanserin (0.03 mg/kg)
[2] = tested on: dizocilpine-induced hyperlocomotion in mice; test: Dizocilpine-induced hyperlocomotor activity assay and isobolographic analysis; format: in vivo; settings: for ID50: agent alone, sc
serum prolactin levels = test: Prolactin assay (serum prolactin); format: in vivo, rats; settings: for serum prolactin levels, dose response: compared to vehicle controls, pimavanserin up to 3 mg/kg, FIG. 20A
Text: (§1) Male non-Swiss albino (NSA) mice and Sprague-Dawley (SD) rats (Harlan, San Diego, Calif.) served as subjects for the present investigation. Animals were housed in climate-controlled rooms on a 12/12 light dark cycle with on lights at 0600 hr. Rats were housed in groups of two and mice were housed in groups of eight. Food and water was available ad libitum except during experimental procedures.
Rats were deeply anesthetized with isoflurane and blood samples were obtained by cardiac puncture, allowed to clot and then centrifuged at 12,000 rpm for 10 min to yield serum for analysis. Serum prolactin levels were quantified using a commercially available enzyme immunoassay kit (ALPCO Diagnostics, Windham, N.H.).

catalepsy in rats = test: Catalepsy assessment; format: in vivo
Text: as §1
In order to generate dose-response curves raw CVs were converted to percentage maximum possible catalepsy (% MPC): % MPC=((CV drug or drug combination−CV vehicle control)/(120−CV vehicle control))*100. […] Each dose or dose combination was assessed in separate groups of rats.

[3] = haloperidol 2 mg per day alone or with pimavanserin 20 mg per day
prolactin levels = settings: haloperidol-treated patients compared to risperidone patients
[4] = tested on: in vivo mouse model of cognition; test: Novel object recognition assay; design: species or system mice; settings: pimavanserin (0.3 mg/kg) in combination with risperidone or olanzapine; FIG. 18
Description: Compounds were administered to mice at one hour post-training (a time-point at which animals normally behaviorally discriminate between novel and familiar objects) and two hours post-training (a time-point at which these animals normally no longer discriminate between objects).

[5] = tested on: radial arm maze in vivo mouse model of cognition; test: Radial arm maze model of cognition; design: species or system mice; settings: pimavanserin (1 mg/kg) in combination with risperidone; FIG. 19
[6] = Pimavanserin plasma pharmacokinetics fitted to 1-compartment model; format: in vivo
Text: Initial parameters for the simulation were obtained by fitting mean plasma concentration-time data to a 1-compartment model (first order input, no lag time and first order elimination).

[7] = Simulation of pimavanserin plasma concentration-time profile, 20 mg once daily; settings: initial parameter for simulation, 20 mg once daily oral
[8] = Unbound fraction in plasma; format: in vitro ADME; settings: parameter used for occupancy simulation, read-out: fu (unbound fraction in plasma)
Text: CR may then be calculated using equation 2. CR=fu*Cpl(t), where fu is the free fraction of drug in plasma and Cpl(t) is the plasma concentration at time t.

muscarinic receptors = test: Activity at muscarinic receptors
Text: (§2) Further, the compound lacks potency at the 5HT2B receptor that controls gastrointestinal function and myocardial development.

histaminergic receptors = test: Activity at histaminergic receptors
Text: as §2

alpha-adrenergic = test: Alpha-adrenergic antagonist activity
Text: as §2

5HT2B receptor = 5HT2B receptor (Homo sapiens, UniProt P41595); test: Potency at 5HT2B receptor
Sequence of 5HT2B receptor (P41595 whole entry): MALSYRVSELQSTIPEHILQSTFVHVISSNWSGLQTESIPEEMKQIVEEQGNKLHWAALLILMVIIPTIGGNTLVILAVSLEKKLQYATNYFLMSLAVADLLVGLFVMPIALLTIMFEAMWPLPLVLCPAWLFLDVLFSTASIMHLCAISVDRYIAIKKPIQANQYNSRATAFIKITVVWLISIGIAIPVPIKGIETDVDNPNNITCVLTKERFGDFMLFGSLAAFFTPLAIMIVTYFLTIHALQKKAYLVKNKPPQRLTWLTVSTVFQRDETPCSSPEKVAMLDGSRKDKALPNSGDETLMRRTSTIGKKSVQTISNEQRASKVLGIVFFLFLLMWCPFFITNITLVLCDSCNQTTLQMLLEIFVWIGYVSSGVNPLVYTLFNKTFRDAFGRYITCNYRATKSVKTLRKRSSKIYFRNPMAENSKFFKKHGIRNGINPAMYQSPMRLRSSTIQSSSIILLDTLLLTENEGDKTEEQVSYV
Text: […]. Further, the compound lacks potency at the 5HT2B receptor that controls gastrointestinal function and myocardial development.

[9] = multiple oral doses; cited from earlier work
[10] = tested on: DOI induced head twitches in the rat; test: DOI induced head twitches; settings: oral doses of 3 and 10 mg/kg
[11] = tested on: hyperactivity in mice induced by MK-801; test: MK-801 induced hyperactivity; settings: oral doses of 3 and 10 mg/kg
[12] = tested on: auto-shaped response in mice; test: Learning of a simple auto-shaped response; settings: intraperitoneal doses up to 32 mg/kg
[13] = tested on: rat model of deficits in sensory motor gating; test: Sensory motor gating deficit induced by DOI; settings: doses of 1 and 3 mg/kg SC
[14] = Brain levels of pimavanserin and haloperidol; settings: Pim + Veh
[15] = tested on: schizophrenic subjects with an acute exacerbation of psychosis; test: Randomized double blind study in schizophrenic subjects: PANSS and CGI-S; format: in vivo, human
[16] = initial parameter for simulation, 5 mg once daily oral
[17] = combined with a fixed dose of pimavanserin (0.03 mg/kg)
[18] = 14th oral dose of 50 mg, 1-compartment model
[19] = plasma, 14th oral dose of 50 mg, 1-compartment model

O=C(CCCN1CCC(O)(c2ccc(Cl)cc2)CC1)c1ccc(F)cc1 [Haloperidol, haloperidol]
suppression of amphetamine-induced hyperlocomotion ([1]; agent alone): dose dependently attenuated hyperactivity produced by amphetamine | ID50 ([1]; agent alone, sc, from % MPI): 0.012 mg/kg | suppression of amphetamine-induced hyperlocomotor activity [1]: enhanced suppression of amphetamine-induced hyperlocomotor activity | ID50 [1, 17]: 0.0013 mg/kg | shift of the dose-response curve [1, 17]: significantly shifted to the left by a factor of approximately 10 | ID50 [2]: 0.07 mg/kg | serum prolactin levels, dose response (serum prolactin levels): dose-related increase in serum prolactin levels | magnitude of prolactinemia (serum prolactin levels; fixed dose haloperidol (0.1 mg/kg) or risperidone (0.01 mg/kg) in the presence of pimavanserin, FIG. 20B): significantly attenuated | serum prolactin levels (serum prolactin levels; haloperidol 0.1 mg/kg ip, vehicle 31±3): 102 ± 12 ng/mL | CD50 (dose that elicits 50% of maximum catalepsy) (catalepsy in rats; agent alone, ip): 0.27 mg/kg | CD50 (catalepsy in rats; in the presence of 1 mg/kg pimavanserin sc): 0.24 mg/kg | CD50 (catalepsy in rats; in the presence of 3 mg/kg pimavanserin sc): 0.38 mg/kg | CD50 (catalepsy in rats; in the presence of 10 mg/kg pimavanserin sc): 0.53 mg/kg | Mean weight gain [3]: 0.7657 kg | Final mean weight ([3]; end of study): 83.759 kg | PRL levels (prolactin levels): lower

CC(C)COc1ccc(CNC(=O)N(Cc2ccc(F)cc2)C2CCN(C)CC2)cc1 [Pimavanserin, N-(1-methylpiperidin-4-yl)-N-(4-fluorophenylmethyl)-N′-(4-(2-methylpropyloxy)phenylmethyl)carbamide]
suppression of amphetamine-induced hyperlocomotion ([1]; agent alone): failed to suppress hyperlocomotion produced by amphetamine | ID50 [2]: 0.09 mg/kg | percent novel object recognition [4]: reverses novel object recognition impairment caused by risperidone and olanzapine | working memory errors after repeated trials [5]: improved the cognitive deficit induced by risperidone | serum prolactin concentrations (serum prolactin levels; 3 mg/kg pimavanserin sc, 60 min, below the limit of detection, value of 15 ng/mL assigned, vehicle 31±3): 15 ± 0 ng/mL | serum prolactin levels, dose response (serum prolactin levels): did not significantly elevate serum prolactin levels | catalepsy (catalepsy in rats; doses up to 10 mg/kg): did not elicit catalepsy | maximum CV (catalepsy value) (catalepsy in rats; doses up to 10 mg/kg, vehicle 6.8±0.9 sec): 10.5 ± 2.4 s | Absorption rate constant (k01) [6, 18]: 0.9197 h⁻¹ | CL/F [6, 18]: 6.4 L/h | Elimination rate constant (k10) [6, 18]: 0.0121 h⁻¹ | half-life ([6]; plasma, oral, 50 mg): 57.3 h | Cmax [6, 19]: 0.0893 µg/mL | Tmax [6, 19]: 4.77 h | AUC(0-t) ([6]; plasma, 14th oral dose of 50 mg, 1-compartment model, read-out: AUC (0-24)ss): 1.89 µg·h/mL | K01 [7]: 0.9197 L/h | V/F [7]: 2182727 mL | fraction unbound [8]: 0.05 | activity at the muscarinic receptors (muscarinic receptors): does not have significant activity | activity at the histaminergic receptors (histaminergic receptors): does not have significant activity | alpha-adrenergic antagonist activities (alpha-adrenergic): lacks the alpha-adrenergic antagonist activities | potency at the 5HT2B receptor (5HT2B receptor): lacks potency | oral clearance, previous reported value [9]: 25.2 L/h | DOI induced head twitches [10]: effective | attenuation of hyperactivity induced by MK-801 [11]: effective | learning of a simple auto-shaped response [12]: failed to disrupt learning of a simple auto-shaped response | gating deficit induced by DOI [13]: potently reversed the gating deficit induced by DOI | Pimavanserin brain levels [14]: 23 (±6) nmol/kg

Cc1nc2n(c(=O)c1CCN1CCC(c3noc4cc(F)ccc34)CC1)CCCC2 [Risperidone, risperidone]
effectiveness compared with other treatments ([15]; low dose risperidone (2 mg per day)): significantly less effective than the other treatments | mean change in PANNS score ([15]; risperidone 2 mg per day, alone or co-administered with pimavanserin 20 mg per day): 16.6 points | ID50 [2]: 0.0045 mg/kg | K01 [16]: 0.4403 h⁻¹ | V1/F [16]: 60222 mL

CC(N)Cc1ccccc1 (stereo not drawn) [amphetamine]
total distance traveled (DT) ([1]; amphetamine 3 mg/kg ip, 15 min session, vehicle controls 876±42 cm): 2764±230 cm

O=C1CCc2ccc(OCCCCN3CCN(c4cccc(Cl)c4Cl)CC3)cc2N1 [aripiprazole]
suppression of amphetamine-induced hyperlocomotion ([1]; agent alone): dose dependently attenuated hyperactivity produced by amphetamine | suppression of amphetamine-induced hyperlocomotor activity [1]: enhanced suppression of amphetamine-induced hyperlocomotor activity | shift of the dose-response curve [1, 17]: significantly shifted to the left

C[C@]12N[C@H](Cc3ccccc31)c1ccccc12 [dizocilpine]
total distance traveled (DT) ([2]; dizocilpine 0.3 mg/kg ip, vehicle controls 792±40 cm, 649±67 cm): 2227±116 cm and 2020±223 cm

OCCOCCN1CCN(C2=Nc3ccccc3Sc3ccccc32)CC1 [quetiapine]
suppression of amphetamine-induced hyperlocomotion ([1]; agent alone): dose dependently attenuated hyperactivity produced by amphetamine | suppression of amphetamine-induced hyperlocomotor activity [1]: enhanced suppression of amphetamine-induced hyperlocomotor activity | shift of the dose-response curve [1, 17]: shifted to the left
